Results reported in US20200000840A1, “USE OF CYCLODEXTRINS TO REDUCE ENDOCYTOSIS IN MALIGNANT AND NEURODEGENERATIVE DISORDERS” (priority 2016, published 2020).
Where “and” joins values, the source holds several entries; their conditions need not be identical. Equal values may be shown once. Entries after “also recorded” stand apart in the source; their conditions may differ. Read-outs that look alike come from different tables or passages of the source. Marks after values point to notes of the source that are not given here.

Columns and labels:
rats [1] = details: cited from earlier work
human erythrocytes = details: cited from earlier work
[2] = parenteral delivery; cited from earlier work
BBB = details: cited from earlier work; for Transport across BBB: 2 h
rats [3] = details: 1.000 g/kg daily; cited from earlier work
[4] = cited from earlier work
animal studies = details: cited from earlier work
rats [5] = details: cited from earlier work; remark: listed apart in the source
[6] = cyclosporine eye-drops; cited from earlier work
[7] = Table 2; cited from earlier work
erythrocytes = details: cited from earlier work
transferrin endocytosis = details: 10 mM; cited from earlier work
[8] = cited from earlier work; remark: listed apart in the source
human keratinocytes = details: cited from earlier work
[9] = parenteral administration; cited from earlier work
rats [10] = details: rat, in vivo, cited from earlier work
rats [11] = details: rat, in vivo; cited from earlier work
children with NPC = details: cited from earlier work
rats [12] = details: long-term parenteral administration, 200 mg/kg; cited from earlier work
[13] = in vivo; cited from earlier work
cats = details: doses of 4-8 g/kg; cited from earlier work
mice, cats, one human = details: cats, and one human; cited from earlier work
leukemia mouse models = details: cited from earlier work
[14] = test system: MDA-MB 231 and MCF-7 human breast epithelial cell lines; experiment: Wound healing assay, overall statements for both cell lines; type: cell-based; details: 1-4 mM
Procedure: (§1) Published results have shown that β-CD inhibits human MDA-MB 231 cell migration (Guerra et al. 2016). This inhibition was attributed to the ability of β-CD to “deplete cholesterol”. β-CD, however, depletes also phospholipids. […] Cells were cultured in 24-well culture plates (Cytoselect CBA-120, 0.9 mm wound healing/gap closure migration assay) for 24 hours with wound healing insert in place. […] Protocol: Warm up the 24-well plate (CBA-120, Cell BioLabs Inc.) with 0.9 mm CytoSelect Wound Healing Inserts at room temperature for 10 minutes. Using sterile forceps, orient the desired number of inserts in the plate wells with their “wound field” aligned in the same direction. Create a cell suspension containing 0.5-1.0×10^6 cells/ml in media containing 10% fetal bovine serum (FBS). Add 500 μL of cell suspension to each well by carefully inserting the pipette tip through the open end at the top of the insert. For optimal cell dispersion, add 250 μL of cell suspension to either side of the open ends at the top of the insert. Incubate cells in a cell culture incubator for 12-24 hours. Carefully remove the insert from the well to begin the wound healing assay. Use sterile forceps to grab and lift the insert slowly from the plate well. Slowly aspirate and discard the media from the wells. Wash wells with media to remove dead cells and debris. Finally, add media to wells to keep cells hydrated. Repeat wash if wells still have debris or unattached cells. When washing is complete, add media with FBS and/or compounds to continue cell culture and wound healing process. Agents that inhibit or stimulate cell migration can be added directly to the wells. Incubate cells in a cell culture incubator (2 hours) and then wash cells with PBS and then add fresh media without compounds. Incubate 12-24 hours before wash and fixing. Remove the fixation solution and add 400 μL of Cell Stain Solution to each well. Allow the stain to incubate with the cells for 15 minutes at room temperature. Aspirate and discard the solution. Carefully wash each stained well 3× with deionized water. Discard washes and allow cells to dry at room temperature. Cells that migrated into the wounded area or protruded from the border of the wound were visualized and photographed under an inverted microscope. Determine the surface area of the defined wound area: Total Surface Area=0.9 mm x length. Determine the surface area of the migrated cells into the wound area: Migrated Cell Surface Area=length of cell migration (mm)×2 x length. Percent Closure (%)=Migrated Cell Surface Area/Total Surface Area x 100.

renal cancer cells = details: triple combination treatment, mice implanted with renal cancer cells; cited from earlier work
MDA-MB-231 cells = experiment: Wound healing / gap closure migration assay (CytoSelect CBA-120); type: cell-based, human; details: treated 2 hours
Procedure: as §1

MCF-7 cells = experiment: as above; type: cell-based, human; details: treated 2 hours
Procedure: as §1

[15] = test system: transgenic mouse model of AD; details: cited from earlier work

Q: Which results are given for `OC[C@H]1O[C@@H]2O[C@H]3[C@H](O)[C@@H](O)[C@@H](O[C@H]4[C@H](O)[C@@H](O)[C@@H](O[C@H]5[C@H](O)[C@@H](O)[C@@H](O[C@H]6[C@H](O)[C@@H](O)[C@@H](O[C@H]7[C@H](O)[C@@H](O)[C@@H](O[C@H]1[C@H](O)[C@H]2O)O[C@@H]7CO)O[C@@H]6CO)O[C@@H]5CO)O[C@@H]4CO)O[C@@H]3CO` [α-cyclodextrin, alpha-cyclodextrin]?
A: acute i.v. toxicity in rats (rats [1]): 0.5 to 0.8 g/kg; tolerance by human erythrocytes (human erythrocytes): better then β-CD; hemolytic activity (human erythrocytes; human erythrocytes, listed as α-CD): β-CD>α-CD>γ-CD; also recorded: lower than that of both β-CD and HP-β-CD; excretion [2]: excreted almost completely in an intact form into the urine; Transport across BBB (BBB; 0.5 mM): 21.5%; Transport across BBB (BBB; 1 mM): 16.5%; BBB breakdown (BBB): 1 mM; toxicity in the BBB model, comparison of CDs (BBB): most toxic among the three native CDs; nephrosis, 1, 2, 3, 4, or 7 daily doses s.c. (rats [3]): 1.000 severe nephrosis; i.v. toxicity, 1 g daily [4]: 1 died after 2 d; ototoxicity (animal studies): did not show ototoxicity; nephrosis, single dose s.c. (rats [5]; 0.100 g/kg): 0.100 no changes; nephrosis, single dose s.c. (rats [5]; 1.000 g/kg): 1.000 changes seen; tolerability in eye-drops [6]: well tolerated; Solubility in water [7]: 130 to 145 mg/mL; phospholipids released (erythrocytes; 10 mM): 30%; release of phospholipids on increasing concentration (erythrocytes; above 10 mM): does not increase release of phospholipids; cholesterol extraction (erythrocytes): negligible even at hemolytic concentrations; reduction of transferrin endocytosis (transferrin endocytosis): 20%; oral absorption in rats [8]: 2-3%; apoptotic cell death (human keratinocytes): not apoptotic; renal toxicity [9]: showed renal toxicity; single dose i.v. LD50 (rats [10]; iv): 0.788/1.008 * g/kg; LD50 (rats [10]): 1008 mg/kg

Q: Which “acute i.v. toxicity in rats” value (rats [1]) does the source give for `CC(O)COC[C@H]1O[C@@H]2O[C@H]3[C@H](O)[C@@H](O)[C@@H](O[C@H]4[C@H](O)[C@@H](O)[C@@H](O[C@H]5[C@H](O)[C@@H](O)[C@@H](O[C@H]6[C@H](O)[C@@H](O)[C@@H](O[C@H]7[C@H](O)[C@@H](O)[C@@H](O[C@H]8[C@H](O)[C@@H](O)[C@@H](O[C@H]1[C@H](O)[C@H]2O)O[C@@H]8COCC(C)O)O[C@@H]7COCC(C)O)O[C@@H]6COCC(C)O)O[C@@H]5COCC(C)O)O[C@@H]4COCC(C)O)O[C@@H]3COCC(C)O` (stereo partly drawn) [HPbCD, hydroxypropyl-beta-cyclodextrin] here?
A: 10 g/kg

Q: What about the “toxic effects at 1 g/kg” value (rats [11]) of the same molecule?
A: did not cause adverse clinical signs

Q: What about the side effects (children with NPC; about 2500 mg/kg bi-weekly, over a year, two children with NPC) of the same molecule?
A: no discernable side effects

Q: And the tolerability (children with NPC; children with NPC, doses of up to 1000 mg/kg/d)?
A: well tolerated

Q: And the hearing (children with NPC; steady state IV doses of 2.5 g/kg bi-weekly for >1 yr)?
A: Hearing unaffected despite receiving steady state IV doses of

Q: What about the “bone mineral density (BMD)” value (rats [12]) of the same molecule?
A: decrease bone mineral density

Q: And the BBB breakdown (BBB)?
A: 2.5 mM

Q: And the Solubility in water [7]?
A: >600 mg/mL

Q: What about the “Vol. of distribution (VD)” value [13] of the same molecule?
A: 0.2 L/kg

Q: What about the “half-life (t1/2)” value [13] of the same molecule?
A: 1.7 to 1.9 h

Q: What about the hearing loss (cats) of the same molecule?
A: permanent hearing loss

Q: And the hearing loss (mice, cats, one human)?
A: risk of causing permanent hearing loss

Q: And the survival (leukemia mouse models)?
A: prolonged survival

Q: And the “oral absorption in rats” value [8]?
A: ≤3%

Q: And the migration versus concentration [14]?
A: migration decreased with higher concentration

Q: And the tumor regression (renal cancer cells)?
A: necessary in triple combination treatment for tumor regression

Q: What about the average wound closure (MDA-MB-231 cells; 1 mM) of the same molecule?
A: 67.67%

Q: What about the “wound closure (Percent Closure), replications r1-r3” value (“wound closure (Percent Closure)” below) (MDA-MB-231 cells; 1 mM) of the same molecule?
A: 62.00% and 68.00% and 73.00%

Q: And the average wound closure (MDA-MB-231 cells; 2 mM)?
A: 56.00%

Q: And the “wound closure (Percent Closure)” value (MDA-MB-231 cells; 2 mM)?
A: 48.00% and 59.00% and 61.00%

Q: What about the average wound closure (MDA-MB-231 cells; 4 mM) of the same molecule?
A: 39.00%

Q: And the “wound closure (Percent Closure)” value (MDA-MB-231 cells; 4 mM)?
A: 48.00% and 44.00% and 25.00%

Q: What about the average wound closure (MCF-7 cells; 1 mM) of the same molecule?
A: 73.33%

Q: And the “wound closure (Percent Closure)” value (MCF-7 cells; 1 mM)?
A: 68.00% and 74.00% and 78.00%

Q: What about the average wound closure (MCF-7 cells; 2 mM) of the same molecule?
A: 48.33%

Q: And the “wound closure (Percent Closure)” value (MCF-7 cells; 2 mM)?
A: 41.00% and 48.00% and 56.00%

Q: What about the average wound closure (MCF-7 cells; 4 mM) of the same molecule?
A: 33.67%

Q: And the “wound closure (Percent Closure)” value (MCF-7 cells; 4 mM)?
A: 32.00% and 28.00% and 41.00%

Q: And the apoptotic cell death (human keratinocytes)?
A: not apoptotic

Q: What about the neuroprotection [15] of the same molecule?
A: neuroprotective effects
